Test results taken from patent publication US8729061B2, “Pyrrolidine derivatives” (Hoffmann-La Roche Inc., priority 2011, dated 2014).

Key:
Assay type in all cases: biochemical
human Cathepsin S = human Cathepsin S (Homo sapiens (Human), UniProt P25774); experiment: Cathepsin enzyme inhibition assay (fluorogenic peptide substrate), Cat S; conditions: enzyme 1 nM, substrate Z-Val-Val-Arg-AMC 20 μM, pH 6.5
Procedure: (§1) Enzyme activity is measured by observing the increase in fluorescence intensity caused by cleavage of a peptide substrate containing a fluorophore whose emission is quenched in the intact peptide.
(§2) Assay buffer: 100 mM potassium phosphate pH 6.5, EDTA-Na 5 mM, Triton X-100 0.001%, DTT 5 mM.
(§3) Enzymes (all at 1 nM): human and mouse Cathepsin S, Cat K, Cat B, Cat L. Substrate (20 μM): Z-Val-Val-Arg-AMC, except for Cat K which uses Z-Leu-Arg-AMC (both from Bachem).
(§4) Excitation 360 nm, Emission 465 nm.
(§5) Enzyme is added to the substance dilutions in 96-well microtitre plates and the reaction is started with substrate. […] IC50 are calculated by standard methods. Inhibition of human Cat S, mouse Cat S, human Cat K, mouse Cat K, human Cat B, mouse Cat B, human Cat L and mouse Cat L have been measured separately.

human Cat L = human Cat L (Homo sapiens (Human), UniProt P07711); experiment: Cathepsin enzyme inhibition assay (fluorogenic peptide substrate), Cat L; conditions: enzyme 1 nM, substrate Z-Val-Val-Arg-AMC 20 μM, pH 6.5
Chain of human Cat L (P07711 114-333): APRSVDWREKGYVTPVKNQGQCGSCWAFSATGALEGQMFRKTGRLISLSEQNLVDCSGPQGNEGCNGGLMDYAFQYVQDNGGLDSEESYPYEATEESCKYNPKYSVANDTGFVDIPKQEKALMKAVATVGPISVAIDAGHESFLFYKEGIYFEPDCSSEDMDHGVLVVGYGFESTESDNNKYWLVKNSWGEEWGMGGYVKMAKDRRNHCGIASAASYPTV
Procedure: as §1, §2, §3, §4, §5

human Cat B = human Cat B (Homo sapiens (Human), UniProt P07858); experiment: Cathepsin enzyme inhibition assay (fluorogenic peptide substrate), Cat B; conditions: enzyme 1 nM, substrate Z-Val-Val-Arg-AMC 20 μM, pH 6.5
Procedure: as §1, §2, §3, §4, §5

human Cat K = human Cat K (Homo sapiens (Human), UniProt P43235); experiment: Cathepsin enzyme inhibition assay (fluorogenic peptide substrate), Cat K; conditions: enzyme 1 nM, substrate Z-Leu-Arg-AMC 20 μM, pH 6.5
Chain of human Cat K (P43235 115-329): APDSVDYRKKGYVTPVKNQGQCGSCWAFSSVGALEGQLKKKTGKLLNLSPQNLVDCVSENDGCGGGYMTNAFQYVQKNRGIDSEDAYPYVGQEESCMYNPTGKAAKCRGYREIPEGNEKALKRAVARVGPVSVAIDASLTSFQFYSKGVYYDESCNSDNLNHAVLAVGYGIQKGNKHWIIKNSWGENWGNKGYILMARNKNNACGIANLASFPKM
Procedure: as §1, §2, §3, §4, §5

Chain of human Cathepsin S (P25774 115-331): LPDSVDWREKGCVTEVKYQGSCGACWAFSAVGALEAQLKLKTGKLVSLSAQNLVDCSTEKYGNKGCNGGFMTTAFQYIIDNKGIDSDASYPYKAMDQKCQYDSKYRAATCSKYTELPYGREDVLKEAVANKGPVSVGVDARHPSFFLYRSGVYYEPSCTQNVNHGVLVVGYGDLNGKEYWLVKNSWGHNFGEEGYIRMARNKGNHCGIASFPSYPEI

Row | IC50 (human Cathepsin S) [nM] | IC50 (human Cat L) [nM] | IC50 (human Cat B) [nM] | IC50 (human Cat K) [nM] | Structure (SMILES)
1 | 0.668 | 10.4 | 150 | 37.3 | CC[C@H](NC(=O)[C@@H]1C[C@@H](S(=O)(=O)c2ccccc2Cl)CN1C(=O)C1(c2ccc(Br)cc2F)CC1)C(=O)C(=O)NC1CC1 [Example 14, (2S,4R)-1-(1-(4-bromo-2-fluorophenyl)cyclopropanecarbonyl)-4-(2-chlorophenylsulfonyl)-N—((S)-1-(cyclopropylamino)-1,2-dioxopentan-3-yl)pyrrolidine-2-carboxamide]
2 | 0.52 | 8.2 | 98.5 | 44.8 | CC[C@H](NC(=O)[C@@H]1C[C@@H](S(=O)(=O)c2ccccc2Cl)CN1C(=O)C1(c2ccc(Br)cc2)CC1)C(=O)C(=O)NC1CC1 [Example 15, (2S,4R)-1-(1-(4-bromophenyl)cyclopropanecarbonyl)-4-(2-chlorophenylsulfonyl)-N—((S)-1-(cyclopropylamino)-1,2-dioxopentan-3-yl)pyrrolidine-2-carboxamide]
3 | 0.593 | 32.4 | 424 | 758 | CC[C@H](NC(=O)[C@@H]1C[C@@H](S(=O)(=O)c2ccccc2C(F)(F)F)CN1C(=O)C1(c2ncc(Cl)cc2F)CC1)C(=O)C(=O)NC1CC1 [Example 19, (2S,4R)-1-(1-(5-chloro-3-fluoropyridin-2-yl)cyclopropanecarbonyl)-N—((S)-1-(cyclopropylamino)-1,2-dioxopentan-3-yl)-4-(2-(trifluoromethyl)phenylsulfonyl)pyrrolidine-2-carboxamide]
4 | 0.56 | 18.5 | 245 | 347 | CCC[C@H](NC(=O)[C@@H]1C[C@@H](S(=O)(=O)c2ccccc2C(F)(F)F)CN1C(=O)C1(c2ncc(Cl)cc2F)CC1)C(=O)C(=O)NC1CC1 [Example 20, (2S,4R)-1-(1-(5-chloro-3-fluoropyridin-2-yl)cyclopropanecarbonyl)-N—((S)-1-(cyclopropylamino)-1,2-dioxohexan-3-yl)-4-(2-(trifluoromethyl)phenylsulfonyl)pyrrolidine-2-carboxamide]
5 | 0.668 | 28.7 | 165 | 406 | CC[C@H](NC(=O)[C@@H]1C[C@@H](S(=O)(=O)c2ccccc2C(F)(F)F)CN1C(=O)C1(c2ccc(Cl)cc2)CC1)C(=O)C(=O)NC1CC1 [Example 21, (2S,4R)-1-(1-(4-chlorophenyl)cyclopropanecarbonyl)-N—((S)-1-(cyclopropylamino)-1,2-dioxopentan-3-yl)-4-(2-(trifluoromethyl)phenylsulfonyl)pyrrolidine-2-carboxamide]
6 | 2.98 | 42.1 | 1230 | 299 | CC[C@H](NC(=O)[C@@H]1C[C@@H](S(=O)(=O)c2ccccc2Cl)CN1C(=O)C1(c2ncc(Br)cc2F)CC1)C(=O)C(=O)NC1CC1 [Example 23, (2S,4R)-1-(1-(5-bromo-3-fluoropyridin-2-yl)cyclopropanecarbonyl)-4-(2-chlorophenylsulfonyl)-N—((S)-1-(cyclopropylamino)-1,2-dioxopentan-3-yl)pyrrolidine-2-carboxamide]
7 | 0.55 | 10.8 | 190 | 71.7 | CCC[C@H](NC(=O)[C@@H]1C[C@@H](S(=O)(=O)c2ccccc2Cl)CN1C(=O)C1(c2ncc(Cl)cc2F)CC1)C(=O)C(=O)NC1CC1 [Example 24, (2S,4R)-1-(1-(5-chloro-3-fluoropyridin-2-yl)cyclopropanecarbonyl)-4-(2-chlorophenylsulfonyl)-N—((S)-1-(cyclopropylamino)-1,2-dioxohexan-3-yl)pyrrolidine-2-carboxamide]
8 | 0.403 | 9.8 | 251 | 97.7 | CC[C@H](NC(=O)[C@@H]1C[C@@H](S(=O)(=O)c2ccccc2Cl)CN1C(=O)C1(c2ncc(Cl)cc2F)CC1)C(=O)C(=O)NC1CC1 [Example 25, (2S,4R)-1-(1-(5-chloro-3-fluoropyridin-2-yl)cyclopropanecarbonyl)-4-(2-chlorophenylsulfonyl)-N—((S)-1-(cyclopropylamino)-1,2-dioxopentan-3-yl)pyrrolidine-2-carboxamide]
9 | 1.27 | 18.4 | 178 | 69 | CC(C)C[C@H](NC(=O)[C@@H]1C[C@@H](S(=O)(=O)c2ccccc2Cl)CN1C(=O)C1(c2ccc(Cl)cc2)CC1)C(=O)C(=O)NC1CC1 [Example 29, (2S,4R)-1-(1-(4-chlorophenyl)cyclopropanecarbonyl)-4-(2-chlorophenylsulfonyl)-N—((S)-1-(cyclopropylamino)-5-methyl-1,2-dioxohexan-3-yl)pyrrolidine-2-carboxamide]
10 | 0.787 | 28 | 399 | 444 | C[C@H](NC(=O)[C@@H]1C[C@@H](S(=O)(=O)c2ccccc2Cl)CN1C(=O)C1(c2ccc(Cl)cc2)CC1)C(=O)C(=O)NC1CC1 [Example 34, (2S,4R)-1-(1-(4-chlorophenyl)cyclopropanecarbonyl)-4-(2-chlorophenylsulfonyl)-N—((S)-4-(cyclopropylamino)-3,4-dioxobutan-2-yl)pyrrolidine-2-carboxamide]

Second part, the compound before the results:

Row | Structure (SMILES) | IC50 (human Cathepsin S) [nM] | IC50 (human Cat L) [nM] | IC50 (human Cat B) [nM] | IC50 (human Cat K) [nM]
11 | CCC[C@H](NC(=O)[C@@H]1C[C@@H](S(=O)(=O)c2ccccc2Cl)CN1C(=O)C1(c2ccc(Br)cc2)CC1)C(=O)C(=O)NC1CC1 [Example 16, (2S,4R)-1-(1-(4-bromophenyl)cyclopropanecarbonyl)-4-(2-chlorophenylsulfonyl)-N—((S)-1-(cyclopropylamino)-1,2-dioxohexan-3-yl)pyrrolidine-2-carboxamide] | 0.442 | 5.9 | 45.4 | 20.2
12 | CCC[C@H](NC(=O)[C@@H]1C[C@@H](S(=O)(=O)c2ccccc2Cl)CN1C(=O)C1(c2ccc(I)cc2)CC1)C(=O)C(=O)NC1CC1 [Example 18, (2S,4R)-4-(2-chlorophenylsulfonyl)-N—((S)-1-(cyclopropylamino)-1,2-dioxohexan-3-yl)-1-(1-(4-iodophenyl)cyclopropanecarbonyl)pyrrolidine-2-carboxamide] | 0.6 | 8.4 | 70.1 | 21
13 | CCC[C@H](NC(=O)[C@@H]1C[C@@H](S(=O)(=O)c2ccccc2C(F)(F)F)CN1C(=O)C1(c2ccc(Cl)cc2)CC1)C(=O)C(=O)NC1CC1 [Example 22, (2S,4R)-1-(1-(4-chlorophenyl)cyclopropanecarbonyl)-N—((S)-1-(cyclopropylamino)-1,2-dioxohexan-3-yl)-4-(2-(trifluoromethyl)phenylsulfonyl)pyrrolidine-2-carboxamide] | 0.983 | 26.6 | 144 | 405
14 | CC(C)(NC(=O)[C@@H]1C[C@@H](S(=O)(=O)c2ccccc2Cl)CN1C(=O)C1(c2ccc(Cl)cc2)CC1)C(=O)C(=O)NC1CC1 [Example 26, (2S,4R)-1-(1-(4-chlorophenyl)cyclopropanecarbonyl)-4-(2-chlorophenylsulfonyl)-N-(4-(cyclopropylamino)-2-methyl-3,4-dioxobutan-2-yl)pyrrolidine-2-carboxamide] | 10.5 | 3100 | 25000 | 25000
15 | O=C(NC1CC1)C(=O)C1(NC(=O)[C@@H]2C[C@@H](S(=O)(=O)c3ccccc3Cl)CN2C(=O)C2(c3ccc(Cl)cc3)CC2)CC1 [Example 27, (2S,4R)-1-(1-(4-chlorophenyl)cyclopropanecarbonyl)-4-(2-chlorophenylsulfonyl)-N-(1-(2-(cyclopropylamino)-2-oxoacetyl)cyclopropyl)pyrrolidine-2-carboxamide] | 17.9 | 6800 | 25000 | 25000
16 | O=C(NC1CC1)C(=O)[C@H](CC1CCCCC1)NC(=O)[C@@H]1C[C@@H](S(=O)(=O)c2ccccc2Cl)CN1C(=O)C1(c2ccc(Cl)cc2)CC1 [Example 30, (2S,4R)-1-(1-(4-chlorophenyl)cyclopropanecarbonyl)-4-(2-chlorophenylsulfonyl)-N—((S)-1-cyclohexyl-4-(cyclopropylamino)-3,4-dioxobutan-2-yl)pyrrolidine-2-carboxamide] | 1.42 | 23.4 | 210 | 137
17 | CCCCNC(=O)C(=O)[C@H](CCC)NC(=O)[C@@H]1C[C@@H](S(=O)(=O)c2ccccc2Cl)CN1C(=O)C1(c2ccc(Cl)cc2)CC1 [Example 32, (2S,4R)—N—((S)-1-(butylamino)-1,2-dioxohexan-3-yl)-1-(1-(4-chlorophenyl)cyclopropanecarbonyl)-4-(2-chlorophenylsulfonyl)pyrrolidine-2-carboxamide] | 0.734 | 7.7 | 29.4 | 24
18 | CC[C@H](NC(=O)[C@@H]1C[C@@H](S(=O)(=O)c2ccccc2Cl)CN1C(=O)C1(c2ccc(Cl)cc2)CC1)C(=O)C(=O)NCc1ccccc1 [Example 33, (2S,4R)—N—((S)-1-(benzylamino)-1,2-dioxopentan-3-yl)-1-(1-(4-chlorophenyl)cyclopropanecarbonyl)-4-(2-chlorophenylsulfonyl)pyrrolidine-2-carboxamide] | 1.11 | 13.6 | 77 | 52.9
